Type in all cases: functional, cell-based
For experiment [1], the system named is MCF7. Nature of the experiment: Antiproliferative activity against human MCF7 cells assessed as reduction in cell viability at 15 uM after 24 hrs by MTT assay relative to control. In general terms: Formazan colour is commonly taken as a measure of viable cells.
Experiment [2] concerns MCF7. Nature of the experiment: Antiproliferative activity against human cisplatin resistant human MCF7-CR cells assessed as reduction in cell viability at 15 uM after 24 hrs by MTT assay relative to control.
Experiment [3] concerns MCF7. Nature of the experiment: Antiproliferative activity against cisplatin-resistant human MCF7-CR cells assessed as reduction in cell viability after 24 hrs by MTT assay. As to conditions: MCF7, 24 h.
Experiment [4] deals with MCF7. Briefly: Antiproliferative activity against human MCF7 cells transfected with BCLXL C5 vector assessed as reduction in cell viability after 24 hrs by MTT assay. Conditions: MCF7, 24 h.
Experiment [5] relates to MCF7. Briefly: Induction of cell death in cisplatin-resistant human MCF7-CR cells assessed as round cell morphology at 10 uM after 24 hrs.
Experiment [6] concerns MCF7. Nature of the experiment: Induction of cell death in human MCF7 cells assessed as reduction in cell volume at 10 uM after 24 hrs.
In experiment [7] the test system is MCF7. Briefly: Induction of cell death in cisplatin-resistant human MCF7-CR cells assessed as reduction in cell volume at 10 uM after 24 hrs.
Experiment [8] relates to MCF7. Briefly: Inhibition of colony formation in cisplatin-resistant human MCF7-CR cells at 5 to 25 uM after 7 days. As to conditions: dose 5-25 µM, time 7.0 day, DDE = dose-dependent effect.
In experiment [9] the test system is MCF7. Nature of the experiment: Antiproliferative activity against cisplatin-resistant human MCF7-CR cells transfected with MBR C3 vector assessed as reduction in cell viability after 24 hrs by MTT assay. As to conditions: MCF7, 24 h.
Experiment [10] concerns MCF7. Nature of the experiment: Induction of cell death in human MCF7 cells assessed as round cell morphology at 10 uM after 24 hrs.
In experiment [11] the test system is MCF7. Briefly: Synergistic antiproliferative activity against cisplatin-resistant human MCF7-CR cells assessed as reduction in cell viability in presence of ABT737 after 24 hrs by MTT assay. Conditions: MCF7, 24 h.
In experiment [12] the test system is MCF7. Nature of the experiment: Antiproliferative activity against human MCF7 cells assessed as reduction in cell viability after 24 hrs by MTT assay. Conditions: MCF7, 24 h.
Experiment [13] relates to MCF7. Nature of the experiment: Antiproliferative activity against cisplatin-resistant human MCF7-CR cells cultured as 3D-spheroids assessed as reduction in cell viability at 5 to 25 uM after 24 hrs by alamar blue assay. As to conditions: dose 5-25 µM, DDE = dose-dependent effect. For orientation: The colour change of resazurin is a common sign of viable cells or microbes.

In experiment [14] the test system is MCF7. Nature of the experiment: Inhibition of colony formation in human MCF7 cells at 5 to 25 uM after 7 days. Conditions: dose 5-25 µM, time 7.0 day, DDE = dose-dependent effect.
Experiment [15] concerns MCF7. Briefly: Antiproliferative activity against human MCF7 cells transfected with empty vector assessed as reduction in cell viability after 24 hrs by MTT assay. Conditions: MCF7, 24 h.
The test system of experiment [16] is MCF7. Nature of the experiment: Antiproliferative activity against cisplatin-resistant human MCF7-CR cells transfected with MBR C2 vector assessed as reduction in cell viability after 24 hrs by MTT assay. Conditions: MCF7, 24 h.
In experiment [17] the test system is MCF7. Nature of the experiment: Induction of apoptosis in cisplatin-resistant human MCF7-CR cells assessed as increase in release of cytochrome C in cytosol expression at 10 to 25 uM after 16 hrs by western blot analysis. As to conditions: dose 10-25 µM, DDE = dose-dependent effect. (Immunoblotting shows a protein as a band on a membrane.)
The test system of experiment [18] is MCF7. Nature of the experiment: Synergistic antiproliferative activity against cisplatin-resistant human MCF7-CR cells assessed as reduction in cell viability in presence of taxol after 24 hrs by MTT assay. Conditions: MCF7, 24 h.
For experiment [19], the system named is MCF7. Nature of the experiment: Antiproliferative activity against human MCF7 cells cultured as 3D-spheroids assessed as reduction in cell viability at 5 to 25 uM after 24 hrs by alamar blue assay. Conditions: dose 5-25 µM, DDE = dose-dependent effect.
The test system of experiment [20] is MCF7. Briefly: Antiproliferative activity against cisplatin-resistant human MCF7-CR cells transfected with empty vector assessed as reduction in cell viability after 24 hrs by MTT assay. Conditions: MCF7, 24 h.
Experiment [21] deals with MCF7. Briefly: Synergistic antiproliferative activity against cisplatin-resistant human MCF7-CR cells assessed as reduction in cell viability in presence of cisplatin after 24 hrs by MTT assay. As to conditions: MCF7, 24 h.
Experiment [22] concerns MCF7. Nature of the experiment: Induction of apoptosis in cisplatin-resistant human MCF7-CR cells assessed as decrease in BCL2 protein expression at 5 to 25 uM after 16 hrs by western blot analysis. As to conditions: dose 5-25 µM, DDE = dose-dependent effect.
For experiment [23], the system named is MCF7. Briefly: Induction of apoptosis in cisplatin-resistant human MCF7-CR cells assessed as decrease in BCLXL protein expression at 5 to 25 uM after 16 hrs by western blot analysis. As to conditions: dose 5-25 µM.
Experiment [24] has as its system MCF7. Nature of the experiment: Antiproliferative activity against human MCF7 cells transfected with MBR C3 vector assessed as reduction in cell viability after 24 hrs by MTT assay. Conditions: MCF7, 24 h.

The source made the active and inactive calls. The calls are words filed in the database; no cut-off is given here.

The term EC50 denotes the midpoint of the concentration-response curve.

`CCOc1cc(-c2nc(-c3ccccc3)c3cc(Cl)ccc3n2)ccc1OC`: the outcome in [1] and in experiment [2] was Active.
As for `CC(=O)O[C@H]1C(=O)[C@@]2(C)[C@H]([C@H](OC(=O)c3ccccc3)[C@]3(O)C[C@H](OC(=O)[C@H](O)[C@@H](NC(=O)c4ccccc4)c4ccccc4)C(C)=C1C3(C)C)[C@]1(OC(C)=O)CO[C@@H]1C[C@@H]2O` [PACLITAXEL], the EC50 in experiment [3] was 44.7 µM.
For the compound `Oc1ccccc1-c1nc(-c2ccccc2)c2cc(Cl)ccc2n1`, the EC50 turned out to be 10.2 µM in experiment [4]; 6.31 µM in experiment [9]; 530 nM in experiment [11]; 6.3 µM in experiment [12]; 14.2 µM in experiment [15]; 21.4 µM in experiment [3]. Also, the EC50 came out at 5.73 µM in experiment [16]; 3550 nM in experiment [18]; 29.4 µM in experiment [20]; 9.12 µM in experiment [21]; 3030 nM in [24]. Moreover, the outcome in [1], in experiment [5], in [6], in [7], in experiment [2] and in experiment [10] was Active. Also, in experiment [23], the result was Active. For the same compound, the Activity entry in [8], in experiment [13], in experiment [14], in experiment [17], in [19] and in experiment [22] was “Dde” each time.
In the case of `Oc1cccc(-c2nc(-c3ccccc3)c3cc(Cl)ccc3n2)c1O`, the outcome in experiment [1] and in experiment [2] was Active.
Consider `Fc1cc(-c2nc(-c3ccccc3)c3cc(Cl)ccc3n2)ccc1Br`, for which the half-maximal effective concentration (EC50) in experiment [4] stood at 6.87 µM; in [9] it was 5.19 µM; in [11], 290 nM; in experiment [12], 5.02 µM; in experiment [15] it was 8.62 µM; in experiment [3], 5.44 µM. The EC50 was 5.04 µM in experiment [16]; 1230 nM in [18]; 22.4 µM in experiment [20]; 4.89 µM in [21]; 2960 nM in experiment [24]. In addition, the result in [1], in [5], in [6], in [7], in experiment [2] and in experiment [10] was Active. Moreover, the result in experiment [23] was Active. The Activity result in [8], in [13], in experiment [14], in [17], in experiment [19] and in [22] was “Dde” in each case.
As to `CCOc1ccc(-c2nc(-c3ccccc3)c3cc(Cl)ccc3n2)cc1`, the outcome in [1] and in experiment [2] was Active.
As to `COc1ccc(-c2nc(-c3ccccc3)c3cc(Cl)ccc3n2)c(F)c1`, the outcome in experiment [1] and in experiment [2] was Active.
In the case of `CN(C)CC[C@H](CSc1ccccc1)Nc1ccc(S(=O)(=O)NC(=O)c2ccc(N3CCN(Cc4ccccc4-c4ccc(Cl)cc4)CC3)cc2)cc1[N+](=O)[O-]` [ABT 737], in experiment [3], the EC50 worked out at 4.39 µM.
For the compound `CC(C)(C)c1ccc(-c2nc(-c3ccccc3)c3cc(Cl)ccc3n2)cc1`, the outcome in experiment [1] and in [2] was Active.
As to `CCCCOc1ccc(-c2nc(-c3ccccc3)c3cc(Cl)ccc3n2)cc1`, the outcome in experiment [1] and in experiment [2] was Active.
Take `Cc1ccc(-c2nc(-c3ccccc3)c3cc(Cl)ccc3n2)cc1`: the outcome in experiment [1] and in experiment [2] was Active.
As for `FC(F)(F)c1ccc(-c2nc(-c3ccccc3)c3cc(Cl)ccc3n2)cc1`, the outcome in experiment [1] and in experiment [2] was Active.

These data come from ChEMBL document CHEMBL5143664, “New synthetic phenylquinazoline derivatives induce apoptosis by targeting the pro-survival members of the BCL-2 family” (Bioorg Med Chem Lett, 2022).
